The target in experiment [1] is Cholinesterase (Homo sapiens, UniProt P06276). The experiment can be described thus: Inhibition of BChE (unknown origin).
Experiment [2] deals with Acetylcholinesterase (Homo sapiens, UniProt P22303). The experiment can be described thus: Inhibition of AChE (unknown origin).
For experiment [3], the target named is Acetylcholinesterase (Electrophorus electricus, UniProt O42275). The experiment can be described thus: Inhibition of electric eel AChE after 15 mins by DTNB reagent based assay.
Sequence of Acetylcholinesterase (Electrophorus electricus, UniProt O42275) (O42275 whole entry): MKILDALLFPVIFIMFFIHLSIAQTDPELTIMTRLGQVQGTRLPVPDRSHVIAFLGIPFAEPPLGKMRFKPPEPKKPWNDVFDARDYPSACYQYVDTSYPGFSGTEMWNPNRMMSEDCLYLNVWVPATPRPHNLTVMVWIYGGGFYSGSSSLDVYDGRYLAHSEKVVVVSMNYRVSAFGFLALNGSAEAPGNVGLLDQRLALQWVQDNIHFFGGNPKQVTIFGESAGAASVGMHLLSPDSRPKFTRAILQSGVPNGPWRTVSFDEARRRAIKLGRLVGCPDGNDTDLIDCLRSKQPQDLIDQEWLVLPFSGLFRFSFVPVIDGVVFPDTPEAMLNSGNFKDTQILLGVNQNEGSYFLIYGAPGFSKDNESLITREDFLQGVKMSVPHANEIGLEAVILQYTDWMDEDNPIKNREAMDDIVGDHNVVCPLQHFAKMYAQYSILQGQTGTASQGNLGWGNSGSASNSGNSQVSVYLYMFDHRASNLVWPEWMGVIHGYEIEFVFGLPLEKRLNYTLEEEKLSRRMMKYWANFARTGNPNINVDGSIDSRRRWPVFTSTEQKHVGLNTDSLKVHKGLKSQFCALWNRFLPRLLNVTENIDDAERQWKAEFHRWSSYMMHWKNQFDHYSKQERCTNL
Experiment [4] addresses Cholinesterase (Equus caballus, UniProt P81908). The experiment can be described thus: Inhibition of horse serum BChE after 15 mins by DTNB reagent based assay.
A short description of experiment [5]: Selectivity ratio of compound effect for inhibition of horse serum BChE to compound effect for inhibition of electric eel AChE.
Experiment [6] has as its target T1, Acetylcholinesterase (Rattus norvegicus, UniProt P37136).
T1 sequence (P37136 whole entry): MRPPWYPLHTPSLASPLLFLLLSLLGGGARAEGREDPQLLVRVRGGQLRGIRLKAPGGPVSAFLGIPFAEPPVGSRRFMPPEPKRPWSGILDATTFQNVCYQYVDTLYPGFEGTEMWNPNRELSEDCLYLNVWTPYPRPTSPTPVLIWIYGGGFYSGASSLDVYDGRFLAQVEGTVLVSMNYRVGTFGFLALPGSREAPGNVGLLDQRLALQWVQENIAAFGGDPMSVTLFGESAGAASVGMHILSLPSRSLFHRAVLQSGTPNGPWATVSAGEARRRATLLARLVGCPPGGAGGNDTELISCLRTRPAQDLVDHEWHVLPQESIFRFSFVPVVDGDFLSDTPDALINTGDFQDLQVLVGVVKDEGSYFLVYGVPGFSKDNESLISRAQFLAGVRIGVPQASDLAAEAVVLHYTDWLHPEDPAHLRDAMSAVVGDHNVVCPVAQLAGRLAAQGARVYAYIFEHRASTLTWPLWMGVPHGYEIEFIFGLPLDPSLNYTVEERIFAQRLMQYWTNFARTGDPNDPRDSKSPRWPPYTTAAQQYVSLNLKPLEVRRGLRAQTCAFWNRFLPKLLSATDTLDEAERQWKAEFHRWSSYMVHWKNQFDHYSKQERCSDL
The experiment can be described thus: Inhibition of rat brain AChE.

Experiment [7] deals with T1, Acetylcholinesterase. The experiment can be described thus: Inhibition of rat brain AChE using acetylthiocholine iodide as substrate measured after 8 mins in presence of BChE inhibitor ethopropazine by Ellman's method. Background: Ellman's reagent forms a yellow product with free thiols.
A further experiment has as its target Butyrylcholinesterase (Rattus norvegicus, UniProt Q9JKC1). The experiment can be described thus: Inhibition of rat serum BChE using butyrylthiocholine iodide as substrate measured after 8 mins in presence of AChE inhibitor BW284c51 by Ellman's method.

This passage reports IC50 and Selectivity ratio results from ChEMBL document CHEMBL4261572, “Design, synthesis and biological evaluation of tacrine-1,2,3-triazole derivatives as potent cholinesterase inhibitors” (Medchemcomm, 2018).

pIC50: −log10 of the molar value. Some results are limits rather than exact numbers.

Sequence of Cholinesterase (Equus caballus, UniProt P81908) (P81908 whole entry): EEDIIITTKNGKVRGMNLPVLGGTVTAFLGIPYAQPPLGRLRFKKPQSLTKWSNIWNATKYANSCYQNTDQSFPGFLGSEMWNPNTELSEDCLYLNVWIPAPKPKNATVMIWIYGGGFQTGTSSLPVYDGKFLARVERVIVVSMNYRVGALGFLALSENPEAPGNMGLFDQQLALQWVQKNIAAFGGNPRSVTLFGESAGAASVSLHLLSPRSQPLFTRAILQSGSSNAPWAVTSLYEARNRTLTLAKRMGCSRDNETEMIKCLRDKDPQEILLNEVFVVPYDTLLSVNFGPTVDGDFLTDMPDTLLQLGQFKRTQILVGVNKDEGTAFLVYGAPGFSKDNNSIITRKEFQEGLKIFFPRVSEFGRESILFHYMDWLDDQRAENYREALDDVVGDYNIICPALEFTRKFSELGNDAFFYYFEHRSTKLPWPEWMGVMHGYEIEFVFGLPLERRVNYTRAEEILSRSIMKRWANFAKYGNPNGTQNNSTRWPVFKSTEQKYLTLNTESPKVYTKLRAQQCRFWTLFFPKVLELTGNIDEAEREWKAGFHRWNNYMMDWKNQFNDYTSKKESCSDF
Sequence of Acetylcholinesterase (Homo sapiens, UniProt P22303) (P22303 whole entry): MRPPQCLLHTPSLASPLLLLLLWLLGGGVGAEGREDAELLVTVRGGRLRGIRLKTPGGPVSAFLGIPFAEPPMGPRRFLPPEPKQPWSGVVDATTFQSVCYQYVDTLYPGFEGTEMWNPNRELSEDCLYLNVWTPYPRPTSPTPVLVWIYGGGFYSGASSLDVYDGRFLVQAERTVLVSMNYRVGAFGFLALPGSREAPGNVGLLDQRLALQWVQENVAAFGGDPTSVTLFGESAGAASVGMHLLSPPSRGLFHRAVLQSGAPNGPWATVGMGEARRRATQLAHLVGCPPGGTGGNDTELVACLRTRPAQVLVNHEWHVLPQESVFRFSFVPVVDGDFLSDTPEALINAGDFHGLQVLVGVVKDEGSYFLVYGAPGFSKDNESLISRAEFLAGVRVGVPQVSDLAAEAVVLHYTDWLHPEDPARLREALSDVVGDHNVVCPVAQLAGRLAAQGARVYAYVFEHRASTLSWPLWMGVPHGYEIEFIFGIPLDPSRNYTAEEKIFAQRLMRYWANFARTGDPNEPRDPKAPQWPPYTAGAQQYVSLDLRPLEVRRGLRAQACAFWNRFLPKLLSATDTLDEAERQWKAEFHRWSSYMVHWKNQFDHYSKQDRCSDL
Sequence of Cholinesterase (Homo sapiens, UniProt P06276) (P06276 whole entry): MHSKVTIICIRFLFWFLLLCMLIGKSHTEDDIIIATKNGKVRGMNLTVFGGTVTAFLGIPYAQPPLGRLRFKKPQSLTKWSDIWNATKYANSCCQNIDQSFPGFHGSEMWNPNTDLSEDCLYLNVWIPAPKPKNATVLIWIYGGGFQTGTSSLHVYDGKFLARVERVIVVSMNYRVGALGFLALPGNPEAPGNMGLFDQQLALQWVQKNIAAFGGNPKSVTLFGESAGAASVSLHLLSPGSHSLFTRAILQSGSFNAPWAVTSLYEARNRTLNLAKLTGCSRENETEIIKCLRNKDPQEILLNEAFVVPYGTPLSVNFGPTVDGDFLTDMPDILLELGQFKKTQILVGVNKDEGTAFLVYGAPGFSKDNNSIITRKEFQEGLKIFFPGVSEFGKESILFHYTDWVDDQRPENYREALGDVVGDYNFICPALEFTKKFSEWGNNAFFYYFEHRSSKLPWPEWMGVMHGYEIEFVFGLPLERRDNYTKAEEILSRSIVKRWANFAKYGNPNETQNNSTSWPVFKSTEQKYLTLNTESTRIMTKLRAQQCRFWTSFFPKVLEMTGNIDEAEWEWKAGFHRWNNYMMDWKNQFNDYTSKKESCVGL
Sequence of Butyrylcholinesterase (Q9JKC1 whole entry): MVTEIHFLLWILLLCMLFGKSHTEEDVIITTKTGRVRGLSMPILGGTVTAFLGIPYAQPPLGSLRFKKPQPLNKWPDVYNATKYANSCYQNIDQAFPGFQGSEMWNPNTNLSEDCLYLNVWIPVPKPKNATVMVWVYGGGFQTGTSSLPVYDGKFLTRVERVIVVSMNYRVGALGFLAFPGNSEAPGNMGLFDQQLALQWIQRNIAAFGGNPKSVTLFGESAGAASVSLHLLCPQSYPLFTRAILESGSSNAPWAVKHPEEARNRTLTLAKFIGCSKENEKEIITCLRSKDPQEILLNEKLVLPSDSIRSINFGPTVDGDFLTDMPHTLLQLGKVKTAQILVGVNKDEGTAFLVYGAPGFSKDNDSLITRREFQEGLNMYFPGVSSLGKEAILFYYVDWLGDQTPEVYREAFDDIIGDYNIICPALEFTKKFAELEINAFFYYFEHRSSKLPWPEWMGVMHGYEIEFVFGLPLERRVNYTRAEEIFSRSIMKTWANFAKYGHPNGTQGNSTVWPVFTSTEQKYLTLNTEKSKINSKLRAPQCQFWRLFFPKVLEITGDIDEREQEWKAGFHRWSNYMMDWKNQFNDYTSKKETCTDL

The pIC50 is the negative decadic logarithm of the IC50, by convention in mol/L. `CCN(CC)c1ccc(/C=C/c2cc(N3CCCCC3)c3ccccc3n2)cc1`: the negative-log IC50 (pIC50) against Cholinesterase [1] was 6.70; against Acetylcholinesterase [2], 4.19.
Regarding `O=C(CCCCc1cn(-c2ccnc3cc(Cl)ccc23)nn1)NCCNc1c2c(nc3cc(Cl)ccc13)CCCC2`, the values for the negative-log IC50 (pIC50) at Acetylcholinesterase [3] and at Cholinesterase [4] were less than 4.00 and 5.22, respectively. The Selectivity ratio in experiment [5] amounted to 2.
Turning to `C#CCN(C)Cc1ccc(OC(=O)N(C)C)c2ncccc12`, the negative-log IC50 (pIC50) at Acetylcholinesterase [6] was 6.30.
For `O=C(CCCCc1cn(-c2ccnc3cc(Cl)ccc23)nn1)N1CCN(c2c3c(nc4cc(Cl)ccc24)CCCC3)CC1`, the negative logarithm of the IC50 (pIC50) on Acetylcholinesterase [3] is 4.73; on Cholinesterase [4], less than 4.00.
Regarding `Clc1ccc2c(-n3cc(CCCCN4CCN(c5c6c(nc7cc(Cl)ccc57)CCCC6)CC4)nn3)ccnc2c1`, the pIC50 was 4.71 on Acetylcholinesterase [3] and less than 4.00 at Cholinesterase [4].
Taken in the same sequence, the figures for `Clc1ccc2c(-n3cc(CCCCN4CCN(c5c6c(nc7ccccc57)CCCC6)CC4)nn3)ccnc2c1` were 5.00 and 4.18.
For the compound `Clc1ccc2c(-n3cc(CCCN4CCN(c5c6c(nc7ccccc57)CCCC6)CC4)nn3)ccnc2c1`, the figures for the negative logarithm of the IC50 (pIC50) at Acetylcholinesterase [3] and at Cholinesterase [4] were 5.31 and 5.44, respectively.
Taken in the same sequence, the figures for `CN(CCCC(=O)N1CCN(c2c3c(nc4ccccc24)CCCC3)CC1)Cc1cn(-c2ccnc3cc(Cl)ccc23)nn1` were less than 4.00 and 4.21.
The matching figures for `O=C(CCCCc1cn(-c2ccnc3cc(Cl)ccc23)nn1)N1CCN(c2c3c(nc4ccccc24)CCCC3)CC1`: 4.96 and less than 4.00.
As to `C1=CCc2c(nc3ccccc3c2NCCCCCCCCNc2ccnc3ccccc23)C1`, the negative logarithm of the IC50 (pIC50) is 8.06 at Acetylcholinesterase [7] and 6.90 at Butyrylcholinesterase.
